Here are results for 22 molecules from patent publication US20070167353A1, “PRODRUG COMPOSITION” (priority 2003, published 2007).

Test in data set [1]: not given
This is another data set of the same source.

For data set [2], the target named is T1, HPEPT1 (Homo sapiens, UniProt P46059).
T1 sequence (P46059 1-708): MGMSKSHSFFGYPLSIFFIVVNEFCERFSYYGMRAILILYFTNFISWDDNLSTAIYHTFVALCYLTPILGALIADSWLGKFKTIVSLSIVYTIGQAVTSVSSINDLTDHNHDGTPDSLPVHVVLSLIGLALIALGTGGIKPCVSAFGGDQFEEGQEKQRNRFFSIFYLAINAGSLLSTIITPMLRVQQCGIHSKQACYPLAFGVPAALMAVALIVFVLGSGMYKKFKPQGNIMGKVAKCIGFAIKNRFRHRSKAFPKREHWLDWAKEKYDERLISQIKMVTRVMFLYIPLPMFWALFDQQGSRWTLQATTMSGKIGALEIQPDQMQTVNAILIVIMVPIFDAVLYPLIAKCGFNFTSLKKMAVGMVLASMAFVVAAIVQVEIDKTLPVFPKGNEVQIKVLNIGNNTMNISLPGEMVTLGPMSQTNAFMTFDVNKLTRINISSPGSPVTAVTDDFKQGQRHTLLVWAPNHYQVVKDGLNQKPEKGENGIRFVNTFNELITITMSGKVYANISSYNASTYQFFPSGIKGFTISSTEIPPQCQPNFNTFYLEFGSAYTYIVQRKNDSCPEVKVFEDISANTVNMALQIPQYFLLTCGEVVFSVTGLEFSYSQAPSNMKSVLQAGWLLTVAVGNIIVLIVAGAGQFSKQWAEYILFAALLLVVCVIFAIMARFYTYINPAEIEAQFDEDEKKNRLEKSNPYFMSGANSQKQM
The conditions noted are these: for Uptake (hPepT1): HeLa cells overexpressing HPEPT1, 50 micromolar, pH 6.0, 45 minutes; for hPepT1/Control: ratio of uptake in hPepT1 cells versus control cells.

Test in data set [3]: not given
This is another data set of the same source.

Data set [4] deals with T1, HPEPT1. Description: Inhibition of radiolabelled Gly-Sar uptake in DC5 cells overexpressing HPEPT1. The data set is classed as cell-based. More on the design: expressed in transfected cells; host or cells: HeLa cells overexpressing hPEPT1 (called 'HPEPT1 infected cells'). The note with it: inhibition of Gly-Sar uptake, DC5 cells overexpressing HPEPT1, 10 min, 37° C.; read-out: DC5 IC50. The method, then: Amino acid prodrugs are tested for their interaction with the dipeptide transporter, HPEPT1, using tissue culture cells that are engineered to overexpress HPEPT1. In this example, the cells that overexpress HPEPT1, termed DC5, are a human meduloblastoma cell line that is stably transfected with a eukaryotic expression vector encoding HPEPT1. […] DC5 cells are plated at a density of 12,000 cells/well in 96-well tissue culture plates and allowed to grow for 2 days. The cells are washed once with 200 microliters of uptake buffer and aspirated. The plates are cooled to 4° C. and 25 ul of uptake buffer containing 125 nanomoles Gly-Sar (at a specific activity of 1 microcurie/micromole) is added. The uptake buffer also contains the prodrugs to be tested at concentrations ranging from 10 micromolar to 20 millimolar. The assay is initiated by placing the plate in a shaking water bath at 37° C. and is terminated after 10 min by rapid washing with multiple changes of 4° C. phosphate buffered saline (PBS). The radioactive Gly-Sar peptide that is transported by the hpept1 is extracted from the cell layer with 200 ul of a one to one mixture of methanol and water and is counted in 4 ml of CytoScint ES™ scintillation cocktail (ICN). The data are plotted as % Gly-Sar uptake of control (no competitive substrate) versus the competitive substrate concentration. […] Typically, values that are below 10 mM indicate that the drug interacts with transporter.

For the molecule `Nc1ccn([C@@H]2O[C@H](COC(=O)[C@H](N)Cc3ccccc3)[C@@H](OC(=O)[C@H](N)Cc3ccccc3)C2(F)F)c(=O)n1` [3′,5′-di-O-D-phenylalanyl Gemcitabine], the “t1/2 Human plasma” value worked out at 2.4 ± 0.2 min. The “t1/2 Buffer pH 7.4” value in data set [1] is on record as 28.0 ± 0.6 min. Also, the “Uptake (hPepT1)” value in data set [2] was “Not detected”. Moreover, the “t1/2 Caco-2 cell homogenates” value in data set [3] is 8.3 ± 0.6 min.

Turning to `CC(C)[C@@H](N)C(=O)OC[C@H]1O[C@@H](n2ccc(N)nc2=O)C(F)(F)[C@@H]1OC(=O)[C@H](N)C(C)C` [3′,5′-di-O-D-valyl gemcitabine], the “t1/2 Human plasma” value worked out at 2.1 ± 0.1 min. Moreover, in data set [1], the “t1/2 Buffer pH 7.4” value is 52.0 ± 1.1 min. Moreover, in data set [2], the “Uptake (hPepT1)” value is on record as 1.11 ± 0.08 nmole/mg/45 min and the hPepT1/Control came out at 1.13. For the same molecule, the “t1/2 Caco-2 cell homogenates” value in data set [3] worked out at 10.3 ± 0.7 min.

For the molecule `CC[C@H](C)[C@H](N)C(=O)OC[C@H]1O[C@@H](n2ccc(N)nc2=O)C(F)(F)[C@@H]1OC(=O)[C@@H](N)[C@@H](C)CC` [3′,5′-di-O-L-isoleucyl gemcitabine], the “t1/2 Human plasma” value amounted to 2.64 ± 0.0 min. Also, in data set [1], the “t1/2 Buffer pH 7.4” value came out at 61.0 ± 0.5 min. In data set [4], the IC50 was 820 µM. Moreover, in data set [2], the “Uptake (hPepT1)” value was found to be 1.16 ± 0.13 nmole/mg/45 min and the hPepT1/Control was 1.06. Moreover, in data set [3], the “t1/2 Caco-2 cell homogenates” value is reported as 2.1 ± 0.0 min.

Turning to `Nc1ccn([C@@H]2O[C@H](COC(=O)[C@@H](N)Cc3ccccc3)[C@@H](OC(=O)[C@@H](N)Cc3ccccc3)C2(F)F)c(=O)n1` [3′,5′-di-O-L-phenylalanyl gemcitabine], the “t1/2 Human plasma” value was determined as 0.7 ± 0.0 min. In addition, the “t1/2 Buffer pH 7.4” value in data set [1] was 38.0 ± 0.2 min. Also, the “Uptake (hPepT1)” value in data set [2] is reported as “Not detected”. For the same molecule, the “t1/2 Caco-2 cell homogenates” value in data set [3] turned out to be 0.6 ± 0.0 min.

For the molecule `CC(C)[C@H](N)C(=O)OC[C@H]1O[C@@H](n2ccc(N)nc2=O)C(F)(F)[C@@H]1OC(=O)[C@@H](N)C(C)C` [3′,5′-di-O-L-valyl Gemcitabine], the “t1/2 Human plasma” value stood at 2.0 ± 0.1 min. Also, the “t1/2 Buffer pH 7.4” value in data set [1] stood at 55.0 ± 2.7 min. For the same molecule, the IC50 in data set [4] is 1720 µM. Further, in data set [2], the “Uptake (hPepT1)” value is given as 1.76 ± 0.09 nmole/mg/45 min and the hPepT1/Control amounted to 1.15. In data set [3], the “t1/2 Caco-2 cell homogenates” value was determined as 0.9 ± 0.0 min.

As to `O=C(OCC1OC(n2cc(F)c(=O)[nH]c2=O)CC1OC(=O)C1CCCN1)C1CCCN1` (stereo not shown) [3′,5′-di-O-prolyl-Floxuridine], the 50% inhibitory concentration (IC50) in data set [4] was > 20000 µM.

On to `Nc1ccn([C@@H]2O[C@H](CO)[C@@H](OC(=O)[C@H](N)Cc3ccccc3)C2(F)F)c(=O)n1` [3′-O-D-phenylalanyl Gemcitabine], for which the “t1/2 Human plasma” value amounted to 7.7 ± 0.2 min. In addition, the “t1/2 Buffer pH 7.4” value in data set [1] was determined as 39.0 ± 0.7 min. In addition, the “Uptake (hPepT1)” value in data set [2] was “Not detected”. Besides, the “t1/2 Caco-2 cell homogenates” value in data set [3] is listed as 8.8 ± 0.1 min.

Turning to `CC(C)[C@@H](N)C(=O)O[C@@H]1[C@@H](CO)O[C@@H](n2ccc(N)nc2=O)C1(F)F` [3′-O-D-valyl Gemcitabine], the “t1/2 Human plasma” value was 5.99 ± 0.0 min. In data set [1], the “t1/2 Buffer pH 7.4” value turned out to be 74.0 ± 1.2 min. For the same molecule, in data set [2], the “Uptake (hPepT1)” value is 0.81 ± 0.02 nmole/mg/45 min and the hPepT1/Control came out at 1.06. In addition, the “t1/2 Caco-2 cell homogenates” value in data set [3] is 23.2 ± 0.2 min.

With `CC[C@H](C)[C@H](N)C(=O)O[C@@H]1[C@@H](CO)O[C@@H](n2ccc(N)nc2=O)C1(F)F` [3′-O-L-isoleucyl gemcitabine], the “t1/2 Human plasma” value is 8.0 ± 0.1 min. Further, the “t1/2 Buffer pH 7.4” value in data set [1] stood at 66.0 ± 0.21 min. Also, the IC50 in data set [4] was 2180 µM. Further, in data set [2], the “Uptake (hPepT1)” value stood at 1.03 ± 0.11 nmole/mg/45 min and the hPepT1/Control is 1.09. Besides, in data set [3], the “t1/2 Caco-2 cell homogenates” value worked out at 10.6 ± 0.3 min.

For `Nc1ccn([C@@H]2O[C@H](CO)[C@@H](OC(=O)[C@@H](N)Cc3ccccc3)C2(F)F)c(=O)n1` [3′-O-L-phenylalanyl Gemcitabine], the “t1/2 Human plasma” value amounted to 5.7 ± 0.1 min. The “t1/2 Buffer pH 7.4” value in data set [1] is on record as 39.0 ± 0.12 min. In addition, the “Uptake (hPepT1)” value in data set [2] was “Not detected”. For the same molecule, the “t1/2 Caco-2 cell homogenates” value in data set [3] was 0.8 ± 0.0 min.

Consider `CC(C)[C@H](N)C(=O)O[C@@H]1[C@@H](CO)O[C@@H](n2ccc(N)nc2=O)C1(F)F` [3′-O-L-valyl Gemcitabine], for which the “t1/2 Human plasma” value came to 5.4 ± 0.1 min. In data set [1], the “t1/2 Buffer pH 7.4” value came out at 64.0 ± 1.4 min. Further, in data set [4], the half-maximal inhibitory concentration (IC50) worked out at 3690 µM. In data set [2], the “Uptake (hPepT1)” value was found to be 1.12 ± 0.07 nmole/mg/45 min and the hPepT1/Control came out at 1.11. Moreover, the “t1/2 Caco-2 cell homogenates” value in data set [3] turned out to be 5.0 ± 0.1 min.

For `O=C(OC1CC(n2cc(F)c(=O)[nH]c2=O)OC1CO)C1CCCN1` (stereo not shown) [3′-O-prolyl-Floxuridine], the IC50 in data set [4] was > 20000 µM.

Regarding `Nc1ccn([C@@H]2O[C@H](COC(=O)[C@H](N)Cc3ccccc3)[C@@H](O)C2(F)F)c(=O)n1` [5′-O-D-phenylalanyl Gemcitabine], the “t1/2 Human plasma” value is given as 34.8 ± 1.1 min. Moreover, the “t1/2 Buffer pH 7.4” value in data set [1] stood at 204.0 ± 3.5 min. The “Uptake (hPepT1)” value in data set [2] is listed as “Not detected”. The “t1/2 Caco-2 cell homogenates” value in data set [3] amounted to 11.4 ± 0.2 min.

For `CC(C)[C@@H](N)C(=O)OC[C@H]1O[C@@H](n2ccc(N)nc2=O)C(F)(F)[C@@H]1O` [5′-O-D-valyl Gemcitabine], the “t1/2 Human plasma” value was determined as 58.1 ± 2.1 min. The “t1/2 Buffer pH 7.4” value in data set [1] was found to be 424.0 ± 1.2 min. Moreover, in data set [2], the “Uptake (hPepT1)” value came to 1.14 ± 0.04 nmole/mg/45 min and the hPepT1/Control stood at 1.58. Moreover, the “t1/2 Caco-2 cell homogenates” value in data set [3] worked out at 37.4 ± 1.4 min.

`CC[C@H](C)[C@H](N)C(=O)OC[C@H]1O[C@@H](n2ccc(N)nc2=O)C(F)(F)[C@@H]1O` [5′-O-L-isoleucyl gemcitabine]: the “t1/2 Human plasma” value came out at 99.2 ± 1.6 min. Also, the “t1/2 Buffer pH 7.4” value in data set [1] turned out to be 452.0 ± 9.6 min. In data set [4], the IC50 was 610 µM. Moreover, in data set [2], the “Uptake (hPepT1)” value worked out at 1.22 ± 0.05 nmole/mg/45 min and the hPepT1/Control is recorded as 5.64. The “t1/2 Caco-2 cell homogenates” value in data set [3] worked out at 75.3 ± 2.8 min.

On to `Nc1ccn([C@@H]2O[C@H](COC(=O)[C@@H](N)Cc3ccccc3)[C@@H](O)C2(F)F)c(=O)n1` [5′-O-L-phenylalanyl Gemcitabine], for which the “t1/2 Human plasma” value is reported as 8.4 ± 0.2 min. The “t1/2 Buffer pH 7.4” value in data set [1] is 200.0 ± 1.9 min. In addition, in data set [2], the “Uptake (hPepT1)” value is “Not detected”. Further, in data set [3], the “t1/2 Caco-2 cell homogenates” value was determined as 3.2 ± 0.1 min.

Turning to `CC(C)[C@H](N)C(=O)OC[C@H]1O[C@@H](n2ccc(N)nc2=O)C(F)(F)[C@@H]1O` [5′-O-L-valyl Gemcitabine], the “t1/2 Human plasma” value is recorded as 56.4 ± 2.9 min. In addition, the “t1/2 Buffer pH 7.4” value in data set [1] was 416.0 ± 8.5 min. Also, the IC50 in data set [4] came to 700 µM. Moreover, in data set [2], the “Uptake (hPepT1)” value was 2.14 ± 0.05 nmole/mg/45 min and the hPepT1/Control was 11.25. Moreover, in data set [3], the “t1/2 Caco-2 cell homogenates” value turned out to be 7.1 ± 0.6 min.

Turning to `O=C(OCC1OC(n2cc(F)c(=O)[nH]c2=O)CC1O)C1CCCN1` (stereo not shown) [5′-O-prolyl-Floxuridine], in data set [4], the concentration for half-maximal inhibition (IC50) is > 20000 µM.

For `Nc1nc2c(ncn2COCCO)c(=O)[nH]1` [Acyclovir, reference compound], the IC50 in data set [4] was > 25000 µM.

In the case of `O=c1[nH]c(=O)n([C@H]2C[C@H](O)[C@@H](CO)O2)cc1F` [Floxuridine, reference compound], the 50% inhibitory concentration (IC50) in data set [4] is > 20000 µM.

Turning to `Nc1nc(O)c2ncn(COC(CO)CO)c2n1` [Ganciclovir, reference compound], the IC50 in data set [4] is > 20000 µM.

For the molecule `Nc1ccn([C@@H]2O[C@H](CO)[C@@H](O)C2(F)F)c(=O)n1` [Gemcitabine, reference compound], the half-maximal inhibitory concentration (IC50) in data set [4] was > 20000 µM.

As usually defined, the IC50 is the concentration that gives 50% inhibition.
